Experimental data published in patent publication US11266647B2, “Method for increasing cell proliferation in pancreatic beta cells, treatment method, and composition” (ICAHN SCHOOL OF MEDICINE AT MOUNT SINAI, priority 2016, dated 2022).
Entries after “also recorded” stand apart in the source; their conditions may differ.

Assays:
SMAD signaling = assay: Immunoblots of SMADs in whole human islets; assay type: cell-based
Text: (§1) The immunoblots are representative of separate experiments in human islets from three different donors. […] Ad.shLacZ indicates a sh-adenovirus for the Ad.shDYRK1A.
Primary antisera employed were: SMAD2/3 (Cell Signaling, 8685p), p-SMAD3 (Abcam, ab52903), SMAD4 (Sc-7966, Santa Cruz), SMAD1/5/9 (ab66737, Abcam), p15INK4 (Abcam, ab53034), p16INK4a (Sc-468, Santa Cruz), p21CIP (556430, BD), p57CIP2 (2557s, Cell Signaling) and GAPDH (Sc-25778, Santa Cruz).
To ascertain whether the harmine-TGFβSF inhibitor combination affected SMAD signaling, human islets were incubated with harmine alone or in combination with two TGFβSF inhibitors: LY or ALK5 (FIG. 5A).

human beta cells [1] = assay: Ki67 labeling of insulin-positive cells in dispersed human cadaveric islets; assay type: cell-based; settings: for Ki67 labeling with other DYRK1A inhibitors in combination therapy: DYRK1A inhibitor other than harmine, with TGFβSF inhibitor
Text: (§2) Primary antisera were: BrdU (ab6326, Abcam), Ki67 (RM-9106-sl, Thermo Scientific, and MIB1, DAKO), p-Histone-3 (06-570, Millipore), insulin (A0564, DAKO), p-yH2AX (MA1-2022, Thermo Scientific), NKX6.1 (F55A10-c, University of Iowa), PDX1 (07-696, Millipore), MAFA (Ab26405, Abcam), Glucagon (2760s, Cell Signaling), Somatostatin (Sc-20999, Santa Cruz), Pancreatic Polypeptide (A0619, DAKO), and CK19 (Ab52625, Abcam). Species-specific mouse Alexa Fluor 488 (A-11029, Life Technologies), rat Alexa Fluor 594 (A-11007, Life Technologies), rabbit Alexa Fluor 488 (A11037, Life Technologies) or guinea pig Alexa Fluor 488 (A-11073, Life Technologies) secondary antisera were selected as appropriate.

mouse beta cells = assay: Mouse pancreas study: beta cell Ki-67/insulin after 7 days i.p. treatment; assay type: in vivo, C57BL/6N mice; settings: C57BL6N mice, i.p. daily 7 days, harmine 10 mg/kg, GW788388 30 mg/kg
Procedure: (§3) On day seven, treatment was begun exactly as in FIG. 9A for seven days.
Male C57BL/6N mice (12 week-old) received vehicle (saline), 10 mg kg^−1 harmine HCl, 30 mg kg^−1 GW788388 or the combination of harmine and GW788388 by intraperitoneal injection daily for 7 days. Mice were sacrificed on day 7, pancreata harvested, fixed in 10% neutral buffered formalin, paraffin embedded, and sectioned. […] A minimum of 2,000 beta cells per pancreas were counted. Investigators were blinded as to group assignments.
(§4) To evaluate the effects of harmine and TGFβ inhibitor in vivo, C57BL6N mice were administered vehicle ([…]), harmine, GW788388, or the combination of harmine plus GW788388 intraperitoneally for seven days, sacrificed, and evaluated for insulin and Ki67. […] Next, human cadaveric islets were transplanted into NOD-SCID mice.

human beta cells [2] = assay: Human islet transplant under renal capsule of NOD-SCID mice: beta cell Ki-67/insulin; assay type: in vivo, human islets in NOD-SCID mice; settings: i.p. daily 7 days, harmine 10 mg/kg, GW788388 30 mg/kg
Procedure: as §3
Mice were allowed to recover for 7 days and then treated with vehicle (saline), 10 mg kg-1 harmine HCl, 30 mg kg-1 GW788388 or the combination of harmine and GW788388 by intraperitoneal injection daily for 7 days. Mice were sacrificed on day 7, renal grafts harvested, fixed in 10% neutral buffered formalin, paraffin embedded and sectioned.
as §4

human beta cells [3] = assay: Ki67 immunolabeling in human islets with adenoviral silencing or overexpression plus drug; assay type: cell-based
Procedure: as §1
Unless otherwise described, all transductions were performed using 150 moi for one hour, and studies performed 72 hours later. […] Adenoviruses encoding human SMAD6 or SMAD7 were prepared as described using cDNAs encoding SMAD6 and SMAD7 obtained from Harvard PlasmID Database.
as §2

TGFβ superfamily members = assay: RNAseq of whole human islets; assay type: cell-based
beta cells of T2D islets = assay: Ki67 immunolabeling in islets from donors with Type 2 diabetes; settings: harmine alone
Text: Islets from normal and Type 2 diabetes adult cadaveric pancreas donors were obtained from the NIH/NIDDK-supported Integrated Islet Distribution Program and from the Alberta Diabetes Institute. Depending on the experiments performed, islets were used either as intact islets, or were first dispersed with Accutase (Sigma, St. Louis, Mo.) onto coverslips.

[4] = tested on: cell cycle activators and cell cycle inhibitors; assay: qPCR of cell cycle activators and inhibitors in whole human islets
Procedure: Gene expression in dispersed islets was analyzed by real-time PCR performed on an ABI 7500 System.
Reasoning that harmine and harmine-TGFβ inhibitors (and DYRK1A and SMADs, respectively) must ultimately orchestrate cell cycle entry via cell cycle activators and cell cycle inhibitors, gene expression of cell cycle activators and inhibitors was examined in whole islets treated with vehicle, harmine, TGFβ inhibitor or the harmine-TGFβ inhibitor combination (FIGS. 6A-6B).

c1ccc(-c2n[nH]cc2-c2ccnc3ccccc23)nc1 [LY364947, 4-[3-(2-Pyridinyl)-1H-pyrazol-4-yl]-quinoline]
p-SMAD3 (SMAD3 phosphorylation), immunoblot (SMAD signaling): further reduced

CCN1/C(=C/C(C)=O)Sc2ccc(O)cc21 [INDY]
Ki67 labeling with other DYRK1A inhibitors in combination therapy (human beta cells [1]): beneficial effects

O=C(NC1CCOCC1)c1ccc(-c2cc(-c3c[nH]nc3-c3ccccn3)ccn2)cc1 [GW788388, 4-(4-(3-(pyridin-2-yl)-1H-pyrazol-4-yl)pyridin-2-yl)-N-(tetrahydro-2H-pyran-4-yl)benzamide]
mouse beta cell proliferation in vivo (Ki67/insulin) (mouse beta cells): induced beta cell proliferation
human beta cell proliferation in vivo in transplanted islets (human beta cells [2]): had no effect
proliferation with adenoviral silencing of DYRK1A (human beta cells [3]; Ad.shDYRK1A plus TGFβ inhibitor): markedly accentuates proliferation

Cc1cccc(-c2n[nH]cc2-c2ccc3ncccc3n2)n1 [ALK5 inhibitor, 2-(3-(6-Methylpyridin-2-yl)-1H-pyrazol-4-yl)-1,5 napththyridine]
p-SMAD3 (SMAD3 phosphorylation), immunoblot (SMAD signaling): further reduced

O=C1NC(Nc2ccccc2)=N/C1=C\c1ccc2c(c1)OCO2 [leucettine-41]
activation of human beta cell proliferation (human beta cells [1]; DYRK1A inhibitor): able to activate human beta cell proliferation
Ki67 labeling with other DYRK1A inhibitors in combination therapy (human beta cells [1]): beneficial effects

COc1ccc2c(c1)[nH]c1c(C)nccc12 [harmine]
mouse beta cell proliferation in vivo (Ki67/insulin) (mouse beta cells): induced beta cell proliferation
BMP1 (RNAseq) (TGFβ superfamily members; Donor 1): 4 FPKM
BMP5 (RNAseq) (TGFβ superfamily members; Donor 1): 26 FPKM
GDF11 (RNAseq) (TGFβ superfamily members; Donor 1): 3 FPKM
INHA (RNAseq) (TGFβ superfamily members; Donor 1): 1 FPKM
TGFB2 (RNAseq) (TGFβ superfamily members; Donor 1): 3 FPKM
TGFBR1 (RNAseq) (TGFβ superfamily members; Donor 1): 9 FPKM
TGFBR2 (RNAseq) (TGFβ superfamily members; Donor 1): 3 FPKM
TGFB1 (RNAseq) (TGFβ superfamily members; Donor 1, row r7): 24 FPKM
TGFB1 (RNAseq), second line so named (TGFβ superfamily members; Donor 1, row r11): 62 FPKM
BMP1 (RNAseq) (TGFβ superfamily members; Donor 2): 3 FPKM
BMP5 (RNAseq) (TGFβ superfamily members; Donor 2): 20 FPKM
GDF11 (RNAseq) (TGFβ superfamily members; Donor 2): 3 FPKM
INHA (RNAseq) (TGFβ superfamily members; Donor 2): 1 FPKM
TGFB2 (RNAseq) (TGFβ superfamily members; Donor 2): 2 FPKM
TGFBR1 (RNAseq) (TGFβ superfamily members; Donor 2): 8 FPKM
TGFBR2 (RNAseq) (TGFβ superfamily members; Donor 2): 3 FPKM
TGFB1 (RNAseq) (TGFβ superfamily members; Donor 2, row r7): 19 FPKM
TGFB1 (RNAseq), second line so named (TGFβ superfamily members; Donor 2, row r11): 22 FPKM
changes in TGFβSF members on harmine treatment of human islets (TGFβ superfamily members; RNAseq): notable changes
human beta cell proliferation in vivo in transplanted islets (human beta cells [2]): increased this rate
Ki67 immunolabeling in T2D islets (beta cells of T2D islets): increased Ki67 immunolabeling to the same degree observed in non-diabetic islet donors
p-SMAD3 (SMAD3 phosphorylation), immunoblot (SMAD signaling): reductions; also recorded: reduced
total SMAD1/5/9, immunoblot (SMAD signaling): reductions; also recorded: reduced
expression of cell cycle activators (e.g., CDK1, CCNA1, CCNE2, CDC25A) ([4]; harmine 10 μM, LY364947 5 μM, qPCR): induced expression
cell cycle inhibitor expression other than CDKN1C ([4]; harmine alone): modest and limited effects
decline of CDKN1C (p57KIP2) expression ([4]; harmine alone, qPCR): ~50%
harmine-induced proliferation with overexpression of SMADs 6 and 7 (human beta cells [3]; adenoviral overexpression, 100 moi): markedly enhanced
harmine-induced proliferation with silencing of SMADs 2, 3, and 4 (human beta cells [3]; adenoviral silencing, 150 moi each): further enhanced
proliferation with silencing of CDKN1A and/or CDKN1C (human beta cells [3]; harmine 10 μM): robust human beta cell proliferation
